In PMC5478271, “Chemical structure-guided design of dynapyrazoles, cell-permeable dynein inhibitors with a unique mode of action” (eLife, 2017):

Target: T1, human cytoplasmic dynein 2 (GFP-dynein 2, amino acids 1091–4307) (Homo sapiens, UniProt Q8NCM8)
T1 construct: (AA 1091–4307, uniprot: Q8NCM8); protein A tag (followed by TEV-cleavable linker) (N, cleaved yes); made in house; host or cells: Sf9 insect cells (baculovirus)
Test: Microtubule gliding (motility) assay with GFP-dynein 2
Assay type: biochemical
Conditions: 0.05 mg/mL casein; for Velocity of dynein-2-driven microtubule gliding: 20 µM compound, solvent control 128 ± 14 nm/s, mean ± S.D.; for Velocity of dynein-2-driven microtubule gliding / IC50: 1 mM MgATP, 2% DMSO; for IC50: read-out: IC50, inhibition of GFP-dynein-2-driven motility
Experimental: We purified an N-terminally GFP-tagged motor-domain construct of dynein 2 using an insect cell expression system ([Schmidt et al., 2015]). The GFP tag in this construct (GFP-dynein 2, amino acids 1091–4307) allowed the motor protein to be immobilized on passivated glass coverslips used in microtubule gliding assays. GFP-dynein 2 was obtained as a mono-disperse peak by gel filtration (Figure 2D and E). In the presence of ATP (1 mM), this protein moved microtubules with a velocity of 128 ± 14 nm/s (mean ± SD, Figure 2G and I).
Reaction setup: A coverslip-based motility assay was adapted from similar assays reported previously ([Firestone et al., 2012]; [Schmidt et al., 2015]). A flow chamber assembled on a pre-cleaned microscope coverslide (3–5 µL chamber volume) was hydrated with buffer A (25 mM PIPES, 30 mM KCl, 5 mM MgCl2, 1 mM EGTA, 0.01% Triton X-100, 1 mM DTT, 20 µM taxol, pH 7.0 with KOH). Anti-GFP antibody (0.4 mg/mL, affinity purified rabbit antibody) was flowed into the chamber and allowed to adhere non-specifically to the glass for 20 s. The surface was blocked using 0.5 mg/mL α-casein in buffer A. Excess protein was then washed away with buffer A. GFP-dynein motor domain was diluted in buffer A supplemented with 1 mM DTT and 0.1 mM ATP (2 mM DTT final; GFP-dynein 2 diluted to: 180 nM; GFP-dynein 1 diluted to: 60 nM), flowed into the chamber and allowed to bind for 20 s. Excess protein was washed away with buffer A. Reaction mix (25 mM PIPES, 90 mM KCl, 6 mM MgCl2, 1 mM EGTA, 0.01% Triton X-100, 3 mM DTT, 20 µM taxol, 1 mM ATP, 1x oxygen scavenging system components [4.5 mg/mL glucose, 35 µg/mL catalase, 200 µg/mL glucose oxidase], 2% final DMSO [v/v] with compounds at appropriate concentrations, 0.05 mg/mL α-casein, microtubules [rhodamine labeled, purified from bovine brain, GMP-CPP and Taxol-stabilized], pH 7.0 with KOH) was flowed into the chamber using ~4 chamber volumes. For experiments shown in Figure 4—figure supplement 1, α-casein concentration in reaction mix was 0.5 mg/mL and all other parameters were held constant.
For reversibility experiments, motility in the presence of 5 µM 8 was observed as above, and upon completion of imaging, the chamber, fresh buffer A supplemented with 1 mM ATP was flowed into the chamber and incubated for 1 min; this wash and incubation cycle was repeated twice. Reaction mix containing DMSO (no compound) was flowed into the chamber using ~4 chamber volumes. The chamber was sealed with valap and returned to the microscope.
Microscopy conditions: Following addition of reaction mix, microtubules were allowed to bind for 5 min before imaging. For reversibility experiments, microtubules were allowed to bind for 10 min before imaging. Videos were taken on a Zeiss Axiovert 200M wide-field microscope equipped with a Zeiss 100x/1.45 NA α-Plan-Fluar objective. Data were captured with an EM-CCD camera (iXon DU-897, Andor Technology) with a 0.2 s exposure time and frame rate of 0.25–0.5/second. Four 10–20 s videos were captured per experimental condition. Velocities were measured using the kymograph tool in FIJI ([Schindelin et al., 2012]). Data analysis is discussed below under ‘General data analysis procedures.’
Microtubule velocity measurements: the tracks of microtubules were traced and converted to kymographs (x axis-displacement, y axis-time) using the kymograph function of FIJI (RRID: SCR_002285). The angle formed between an edge of a microtubule and the horizontal was measured. This angle, θ, was converted into velocity using the following relationship: velocity = 1/|tangent(θ)| * (unit pixel distance)/(time interval between frames).
The calibrated pixel distance was 0.152 µm and the time interval between frames was either 2 or 4 s. The velocities of at least seven microtubules were measured per field of view, if sufficient tracks could be found. In cases where fewer than seven microtubules were found in a field of view, velocities of all microtubules on the coverslip were measured. […]

T1 sequence (Q8NCM8 1091-4307): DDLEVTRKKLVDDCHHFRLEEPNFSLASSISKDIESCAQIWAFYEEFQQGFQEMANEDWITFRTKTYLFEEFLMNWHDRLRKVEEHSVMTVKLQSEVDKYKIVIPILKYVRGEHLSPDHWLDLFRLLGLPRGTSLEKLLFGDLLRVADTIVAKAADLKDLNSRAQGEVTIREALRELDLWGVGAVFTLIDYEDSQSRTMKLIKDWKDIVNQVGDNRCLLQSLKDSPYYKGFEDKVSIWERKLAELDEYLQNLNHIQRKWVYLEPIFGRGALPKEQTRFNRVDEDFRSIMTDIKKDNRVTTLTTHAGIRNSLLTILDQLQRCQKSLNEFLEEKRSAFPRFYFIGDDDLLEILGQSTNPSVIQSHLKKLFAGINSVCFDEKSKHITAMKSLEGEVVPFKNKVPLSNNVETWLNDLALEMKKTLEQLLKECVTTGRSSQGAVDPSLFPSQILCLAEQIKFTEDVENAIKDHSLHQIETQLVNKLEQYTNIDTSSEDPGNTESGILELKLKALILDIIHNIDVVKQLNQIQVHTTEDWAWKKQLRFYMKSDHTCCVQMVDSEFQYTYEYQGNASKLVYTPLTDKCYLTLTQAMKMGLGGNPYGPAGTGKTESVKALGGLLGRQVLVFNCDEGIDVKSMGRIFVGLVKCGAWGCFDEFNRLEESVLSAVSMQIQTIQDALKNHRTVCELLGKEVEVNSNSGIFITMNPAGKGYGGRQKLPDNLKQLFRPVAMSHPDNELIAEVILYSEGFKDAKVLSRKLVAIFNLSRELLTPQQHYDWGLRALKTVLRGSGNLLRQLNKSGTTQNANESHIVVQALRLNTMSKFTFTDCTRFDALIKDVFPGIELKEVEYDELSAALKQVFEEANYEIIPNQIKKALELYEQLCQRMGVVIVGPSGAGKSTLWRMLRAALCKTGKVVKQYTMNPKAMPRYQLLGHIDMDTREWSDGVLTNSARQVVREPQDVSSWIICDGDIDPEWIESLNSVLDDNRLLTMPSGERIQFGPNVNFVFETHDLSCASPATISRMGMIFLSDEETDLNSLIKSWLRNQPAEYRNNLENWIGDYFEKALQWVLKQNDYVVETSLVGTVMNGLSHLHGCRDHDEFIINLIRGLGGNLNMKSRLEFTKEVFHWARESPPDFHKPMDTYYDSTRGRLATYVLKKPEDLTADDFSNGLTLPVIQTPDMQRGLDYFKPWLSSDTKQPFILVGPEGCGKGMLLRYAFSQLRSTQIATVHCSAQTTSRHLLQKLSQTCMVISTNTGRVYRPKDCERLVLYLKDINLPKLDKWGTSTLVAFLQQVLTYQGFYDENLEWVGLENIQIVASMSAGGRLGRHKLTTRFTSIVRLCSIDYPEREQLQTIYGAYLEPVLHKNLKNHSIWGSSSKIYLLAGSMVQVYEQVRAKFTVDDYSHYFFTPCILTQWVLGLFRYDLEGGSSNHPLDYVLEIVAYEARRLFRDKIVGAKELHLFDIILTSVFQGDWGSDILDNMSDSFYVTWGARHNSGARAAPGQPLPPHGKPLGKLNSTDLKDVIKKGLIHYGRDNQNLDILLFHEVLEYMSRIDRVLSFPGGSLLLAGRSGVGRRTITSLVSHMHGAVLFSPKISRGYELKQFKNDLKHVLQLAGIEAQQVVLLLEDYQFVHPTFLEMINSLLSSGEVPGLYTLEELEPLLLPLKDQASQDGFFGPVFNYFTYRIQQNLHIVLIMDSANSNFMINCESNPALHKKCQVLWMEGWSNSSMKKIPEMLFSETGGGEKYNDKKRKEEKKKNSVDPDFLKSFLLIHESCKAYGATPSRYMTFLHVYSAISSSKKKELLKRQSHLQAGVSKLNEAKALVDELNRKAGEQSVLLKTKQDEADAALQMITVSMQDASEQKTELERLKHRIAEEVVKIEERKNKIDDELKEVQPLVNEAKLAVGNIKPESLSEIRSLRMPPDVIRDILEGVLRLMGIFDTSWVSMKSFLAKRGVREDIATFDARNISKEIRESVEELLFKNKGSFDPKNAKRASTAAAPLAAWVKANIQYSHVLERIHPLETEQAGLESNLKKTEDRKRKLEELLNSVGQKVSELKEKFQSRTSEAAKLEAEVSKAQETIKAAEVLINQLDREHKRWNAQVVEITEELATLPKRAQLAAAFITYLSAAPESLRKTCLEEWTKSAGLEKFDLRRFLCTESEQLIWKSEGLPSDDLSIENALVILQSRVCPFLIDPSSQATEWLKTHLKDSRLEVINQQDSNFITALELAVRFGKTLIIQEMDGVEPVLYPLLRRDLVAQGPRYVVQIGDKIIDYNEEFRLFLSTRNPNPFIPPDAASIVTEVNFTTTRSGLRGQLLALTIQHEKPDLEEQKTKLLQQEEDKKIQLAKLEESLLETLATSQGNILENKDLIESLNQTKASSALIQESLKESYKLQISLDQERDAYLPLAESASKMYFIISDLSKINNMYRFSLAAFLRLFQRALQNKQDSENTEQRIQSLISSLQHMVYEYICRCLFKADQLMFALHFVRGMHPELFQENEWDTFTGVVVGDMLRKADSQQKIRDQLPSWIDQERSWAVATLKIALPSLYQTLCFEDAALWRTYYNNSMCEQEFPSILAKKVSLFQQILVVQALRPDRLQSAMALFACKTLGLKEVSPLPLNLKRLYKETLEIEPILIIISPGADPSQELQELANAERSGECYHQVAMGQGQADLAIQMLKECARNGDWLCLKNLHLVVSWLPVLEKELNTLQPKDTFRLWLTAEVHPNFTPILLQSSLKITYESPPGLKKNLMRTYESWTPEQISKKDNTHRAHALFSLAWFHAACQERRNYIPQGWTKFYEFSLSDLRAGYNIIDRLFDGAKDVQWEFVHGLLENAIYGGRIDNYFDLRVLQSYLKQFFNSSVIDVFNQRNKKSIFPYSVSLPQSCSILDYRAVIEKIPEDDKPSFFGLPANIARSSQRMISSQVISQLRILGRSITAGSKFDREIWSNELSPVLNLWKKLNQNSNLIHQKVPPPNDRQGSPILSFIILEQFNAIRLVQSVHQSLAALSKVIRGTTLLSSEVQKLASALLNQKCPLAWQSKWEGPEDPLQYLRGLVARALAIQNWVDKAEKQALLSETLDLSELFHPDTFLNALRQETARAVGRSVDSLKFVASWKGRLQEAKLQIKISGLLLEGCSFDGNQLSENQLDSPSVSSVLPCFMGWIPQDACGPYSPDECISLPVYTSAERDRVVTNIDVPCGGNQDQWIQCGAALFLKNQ

N#C/C(C(=O)c1ccc(Cl)cc1Cl)=C1\NC(=O)c2ccc(Cl)cc2N1 [ciliobrevin D, reference compound]
Velocity of dynein-2-driven microtubule gliding: 83 ± 10 nm/s
IC50: 20 µM

N#Cc1c(C2(c3ccc(Cl)cc3)CC2)nn2c1[nH]c(=O)c1cc(I)ccc12 [Compound 8, 2-[1-(4-chlorophenyl)cyclopropyl]-7-iodo-5-oxo-4H-pyrazolo[1,5-a]quinazoline-3-carbonitrile]
Reversibility of inhibition of dynein-2-dependent motility after washout (5 µM 8, then washout, 1 mM ATP): reversed following washout
Velocity of dynein-2-driven microtubule gliding: 6 ± 2 nm/s
IC50: 2.6 ± 1.3 µM
